One block for each compound: values may come before it. Where a SMILES comes first, the peptide text is derived from it.
What was measured:
rat adipocytes = format: cell-based
Protocol: (§1) Preparation of Adipocytes--The procedure has been described in detail previously. Briefly, male Wistar rats (100-150 g) were decapitated, and the epididymal fat pads removed and minced with scissors into KRHB (Krebs-Ringer/HEPES/Bovine serum albumin (BSA) buffer: 80 mM NaCl, 4.7 mM KCl, 2.5 mM CaCl2, 1.2 mM MgSO4, 50 mM HEPES, 5% BSA (Sigma, radioimmunoassay grade), pH 7.2) containing 5 mM D-glucose and 1 mg/ml collagenase (type I, Worthington) and digested (1 hr, 37° C.) with gentle shaking (250 cycles per minute). The adipocytes were washed five times in KRHB (each wash in a volume ten times the cell volume). The adipocyte layer was finally diluted with KRHB to a 10% (v/v) suspension as estimated by the volume of packed cells (lipocrit).
Glucose uptake in vitro--The uptake of [^14 C]glucose (D-[U-^14 C]glucose, Amersham, (300 Ci/mol)) by isolated rat adipocytes was measured as follows unless otherwise stated: 50 μl adipocyte cell suspension was pipetted into "Nunc-Immuno tube minisorp" (Nunc, Denmark) and preincubated at 37° C. with gentle shaking (225 cycles per minute) for 30 min. Hormones and peptides were added in 50 μl KRHB and incubated for 30 min at 37° C. Before addition to cells, all solutions were neutralized to pH 7.2. [^14 C]glucose tracer (~100,000 dpm) was added and the incubation continued for another 20 minutes at 37° C. The assay was terminated by centrifugation of 100 μl sample on top of 250 μl silicone oil (Thomas Scientific) in 500 μl tubes in a microfuge (10,000×g) for 1 min. The tube was cut just below the adipocyte layer and the amount of radioactivity in the adipocytes determined by scintillation counting. The precise concentration of [^14 C]glucose was calculated from total counts added.

EGFR = biological target: T1, EGFR (Rattus norvegicus, UniProt G3V6K6); assay: Cell-associated 125I-labeled EGF on rat adipocytes; format: binding
T1 construct: male Wistar rats (100-150 g) were decapitated, and the epididymal fat pads removed; endogenous in cells; host or cells: freshly isolated epididymal adipocytes of male Wistar rats
Protocol: as §1
Cell-associated ^125 I-labeled EGF--50 μl adipocyte cell suspension was pipetted into "Nunc-Immuno tube minisorp" (Nunc, Denmark) and preincubated at 37° C. with gentle shaking (225 cycles per minute) for 30 min. […] The assay was terminated by centrifugation of 75 μl sample as described above for glucose uptake, and the cell-associated as well as the free ^125 I-labeled EGF was determined by γ-counting. […] The data were calculated as specific cell-associated ^125 I-labeled EGF and the maximal value was in each experiment set to 100%.

purified human IR = biological target: T2, purified human IR (Homo sapiens, UniProt P06213); assay: Tyrosine kinase activity of purified IR (autophosphorylation); format: biochemical
T2 construct: The product was a tetramer with two heavy chains, each ~130 kDa, and two light chains, each ~90 kDa; from tissue; host or cells: human placenta
Protocol: The purified human IR and the cloned cytoplasmic kinase domain (IRKD) have been described (Ellis et al., (1988) Virology 62:1634-39; Roth et al., (1986) J. Biol. Chem. 261:3753-57). Briefly, the human IR was purified from placenta by immunoaffinity columns, using monoclonal antibodies and binding of IR to wheat germ agglutinin. The product was a tetramer with two heavy chains, each ~130 kDa, and two light chains, each ~90 kDa. […] When peptide was used, it was added in 5.0 μl, the volume adjusted to 20 μl by adding buffer, and the mixture incubated (1 hr, 4° C.). After incubation, 10 μl of a solution containing 2.5 μCi ^32 P-labeled ATP (3,000 Ci/mmol; γ-labeled; Amersham) 50 mM HEPES, pH 7.6, 150 mM NaCl, 0.1% Triton X-100, 37.5 μM unlabeled ATP, 15 mM MgCl2, and 6 mm MnCl2 was added to a final volume of 30 μ l. The mixture was then incubated for 30 min. at 24° C. After incubation, 15 μl sample buffer was added, and the sample was boiled for 5 min., and run on 10% SDS-PAGE overnight. The gel was dried, and autoradiograms processed with an exposure time of 5-10 hr. For quantitative estimates the β-subunit band of IR and the IRKD bands were cut out and counted dry (Cerenkov) in a scintillation counter.

rats = assay: Blood glucose levels in whole rats after i.v. injection; format: in vivo, rat; conditions: insulin alone 10 μg/kg i.v.
Protocol: The effect of D^k -(61-85) in whole rats was determined. […] All animals were starved 16-20 hrs. prior to experimentation. Each determination was based on results as obtained from 42 rats, where the same rats were used in the four treatment schedules. The schedules were a control, a peptide by itself, insulin by itself, and insulin plus peptide. […] The peptide, at about 20 min., the blood glucose had dropped to about 65% of its original value and then slowly rose back to about the original value at about 90 min. and was maintained about the same level.

Apparent affinity of specific cell-associated EGF (EGFR): low nanomolar range
Compound: EGF: epidermal growth factor (mouse), Collaborative Research
Glucose uptake above basal (rat adipocytes; EGF alone): ~ 50%

EC50 (purified human IR; insulin as stimulus): ~0.003 µM
Compound: insulin: unlabeled porcine insulin (NOVO)
Blood glucose course compared with peptide alone (rats): A similar result

Further lines, the compound ahead of its results:

Compound: PDGF
Effect on glucose uptake in adipocytes (rat adipocytes; PDGF alone): no effect

Compound: TGFα: TGFα (rat), Peninsula Laboratories
[14C]glucose uptake above basal (rat adipocytes; 50 nM TGFα alone): ~ 50%

Compound: ACTH-(1-24): human ACTH-(1-24), routine control peptide, Peninsula Laboratories
Substrate for IR tyrosine Kinase (purified human IR): None of the control peptides (e.g. ACTH-(1-24) are substrates

Compound: CC[C@H](C)[C@H](NC(=O)[C@H](CCC(N)=O)NC(=O)[C@@H](NC(=O)[C@H](CCC(=O)O)NC(=O)[C@H](CCCNC(=N)N)NC(=O)[C@@H](N)CCC(=O)O)[C@@H](C)O)C(=O)N[C@@H](C)C(=O)N[C@@H](CCCCN)C(=O)NCC(=O)N[C@@H](CC(N)=O)C(=O)N[C@@H](CCC(=O)O)C(=O)N[C@@H](CCC(N)=O)C(=O)N[C@@H](CO)C(=O)N[C@@H](Cc1ccccc1)C(=O)N[C@@H](CCCNC(=N)N)C(=O)N[C@H](C(=O)N[C@@H](CC(=O)O)C(=O)N[C@@H](CC(C)C)C(=O)N[C@@H](CCCNC(=N)N)C(=O)N[C@H](C(=O)N[C@@H](CC(C)C)C(=O)N[C@@H](CC(C)C)C(=O)N[C@@H](CCCNC(=N)N)C(=O)N[C@@H](Cc1ccc(O)cc1)C(=O)N[C@@H](Cc1ccc(O)cc1)C(=O)O)[C@@H](C)O)C(C)C [D^k-(61-85)] (H-ERETQIAKGNEQSFRVDLRTLLRYY-OH)
EC50 (rat adipocytes): 10 to 15 µM
